How the values were obtained:
TTK (human) [1] = biological target: TTK (human) (UniProt P33981); assay: SelectScreen, TR FRET
PRKD3 (human) = PRKD3 (human) (UniProt O94806); assay: KINOMEscan competition binding; details: compound 10.0 µM
CLK2 (human) = CLK2 (human) (UniProt P49760); assay: KINOMEscan competition binding; details: compound 10.0 µM
PTK2B (human) = PTK2B (human) (UniProt Q14289); assay: KINOMEscan competition binding; details: compound 10.0 µM
RPS6KA2 KD2 (human) = RPS6KA2 KD2 (human) (UniProt Q15349); assay: KINOMEscan competition binding; details: compound 10.0 µM
PLK3 (human) = PLK3 (human) (UniProt Q9H4B4); assay: KINOMEscan competition binding; details: compound 10.0 µM
Sequence of PLK3 (human) (Q9H4B4 whole entry, looked up): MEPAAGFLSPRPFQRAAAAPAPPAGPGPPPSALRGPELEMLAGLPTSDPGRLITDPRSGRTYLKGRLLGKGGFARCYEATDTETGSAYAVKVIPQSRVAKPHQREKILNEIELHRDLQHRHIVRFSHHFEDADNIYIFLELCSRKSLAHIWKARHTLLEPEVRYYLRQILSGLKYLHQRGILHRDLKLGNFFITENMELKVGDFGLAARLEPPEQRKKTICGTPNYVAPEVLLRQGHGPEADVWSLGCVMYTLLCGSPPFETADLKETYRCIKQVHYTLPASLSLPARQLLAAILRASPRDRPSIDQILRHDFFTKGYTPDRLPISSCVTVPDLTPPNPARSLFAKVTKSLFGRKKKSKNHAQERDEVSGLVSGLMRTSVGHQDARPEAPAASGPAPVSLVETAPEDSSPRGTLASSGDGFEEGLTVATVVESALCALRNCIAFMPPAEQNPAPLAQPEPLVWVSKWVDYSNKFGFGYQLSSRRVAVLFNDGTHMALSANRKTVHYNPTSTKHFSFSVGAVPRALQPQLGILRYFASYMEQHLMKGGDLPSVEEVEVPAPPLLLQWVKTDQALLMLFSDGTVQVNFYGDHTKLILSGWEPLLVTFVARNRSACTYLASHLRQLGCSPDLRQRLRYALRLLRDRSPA

PLK4 (human) = PLK4 (human) (UniProt O00444); assay: KINOMEscan competition binding; details: compound 10.0 µM
CAMK2A (human) = CAMK2A (human) (UniProt Q9UQM7); assay: KINOMEscan competition binding; details: compound 10.0 µM
CLK1 (human) = CLK1 (human) (UniProt P49759); assay: KINOMEscan competition binding; details: compound 10.0 µM
TTK (human) [2] = biological target: TTK (human) (UniProt P33981); assay: KINOMEscan competition binding; details: for kinase still bound, per cent of control: compound 10.0 µM
SLK (human) = SLK (human) (UniProt Q9H2G2); assay: KINOMEscan competition binding; details: compound 10.0 µM
RPS6KA1 KD2 (human) = RPS6KA1 KD2 (human) (UniProt Q15418); assay: KINOMEscan competition binding; details: compound 10.0 µM
INSRR (human) = INSRR (human) (UniProt P14616); assay: KINOMEscan competition binding; details: compound 10.0 µM
Sequence of INSRR (human) (P14616 whole entry, looked up): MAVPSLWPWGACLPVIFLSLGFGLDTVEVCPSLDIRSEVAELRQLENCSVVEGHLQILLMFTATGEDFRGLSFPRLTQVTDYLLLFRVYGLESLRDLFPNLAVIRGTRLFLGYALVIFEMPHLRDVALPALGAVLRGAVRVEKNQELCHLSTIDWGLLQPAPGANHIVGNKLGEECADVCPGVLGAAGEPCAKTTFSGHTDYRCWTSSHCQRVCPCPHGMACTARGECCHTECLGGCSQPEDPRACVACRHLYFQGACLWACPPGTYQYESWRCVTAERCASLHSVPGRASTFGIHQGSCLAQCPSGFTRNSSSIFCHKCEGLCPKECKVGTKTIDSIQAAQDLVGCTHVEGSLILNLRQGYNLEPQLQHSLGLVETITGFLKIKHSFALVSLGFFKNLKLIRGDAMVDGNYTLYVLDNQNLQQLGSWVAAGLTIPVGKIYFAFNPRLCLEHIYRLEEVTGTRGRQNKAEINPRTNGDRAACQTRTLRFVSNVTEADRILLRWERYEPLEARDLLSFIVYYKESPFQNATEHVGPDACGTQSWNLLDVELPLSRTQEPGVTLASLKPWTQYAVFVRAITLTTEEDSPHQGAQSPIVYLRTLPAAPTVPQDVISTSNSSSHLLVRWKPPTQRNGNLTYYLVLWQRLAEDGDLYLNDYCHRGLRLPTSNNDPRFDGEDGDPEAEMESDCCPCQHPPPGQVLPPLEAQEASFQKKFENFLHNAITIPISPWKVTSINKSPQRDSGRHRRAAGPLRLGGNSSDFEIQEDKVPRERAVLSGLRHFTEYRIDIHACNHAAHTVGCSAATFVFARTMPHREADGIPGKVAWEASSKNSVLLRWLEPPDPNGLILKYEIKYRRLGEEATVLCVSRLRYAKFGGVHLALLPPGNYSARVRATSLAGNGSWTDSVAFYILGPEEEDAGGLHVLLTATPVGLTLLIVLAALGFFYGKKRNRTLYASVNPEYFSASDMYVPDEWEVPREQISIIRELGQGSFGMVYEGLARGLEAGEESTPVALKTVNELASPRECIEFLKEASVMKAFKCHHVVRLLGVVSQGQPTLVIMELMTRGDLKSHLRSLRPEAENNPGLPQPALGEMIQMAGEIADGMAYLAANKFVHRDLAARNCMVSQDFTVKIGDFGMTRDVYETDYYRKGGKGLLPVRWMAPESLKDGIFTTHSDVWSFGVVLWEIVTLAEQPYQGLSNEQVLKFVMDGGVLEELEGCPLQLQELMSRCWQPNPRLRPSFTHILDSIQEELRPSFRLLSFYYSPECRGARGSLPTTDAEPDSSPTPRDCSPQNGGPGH

MYLK (human) = MYLK (human) (UniProt Q15746); assay: KINOMEscan competition binding; details: compound 10.0 µM
ALK (human) = ALK (human) (UniProt Q9UM73); assay: KINOMEscan competition binding; details: compound 10.0 µM
PTK2 (human) = PTK2 (human) (UniProt Q05397); assay: KINOMEscan competition binding; details: compound 10.0 µM
INSR (human) = INSR (human) (UniProt P06213); assay: KINOMEscan competition binding; details: compound 10.0 µM
DCLK1 (human) = DCLK1 (human) (UniProt O15075); assay: KINOMEscan competition binding; details: compound 10.0 µM
GAK (human) = GAK (human) (UniProt O14976); assay: KINOMEscan competition binding; details: compound 10.0 µM
Sequence of GAK (human) (O14976 whole entry, looked up): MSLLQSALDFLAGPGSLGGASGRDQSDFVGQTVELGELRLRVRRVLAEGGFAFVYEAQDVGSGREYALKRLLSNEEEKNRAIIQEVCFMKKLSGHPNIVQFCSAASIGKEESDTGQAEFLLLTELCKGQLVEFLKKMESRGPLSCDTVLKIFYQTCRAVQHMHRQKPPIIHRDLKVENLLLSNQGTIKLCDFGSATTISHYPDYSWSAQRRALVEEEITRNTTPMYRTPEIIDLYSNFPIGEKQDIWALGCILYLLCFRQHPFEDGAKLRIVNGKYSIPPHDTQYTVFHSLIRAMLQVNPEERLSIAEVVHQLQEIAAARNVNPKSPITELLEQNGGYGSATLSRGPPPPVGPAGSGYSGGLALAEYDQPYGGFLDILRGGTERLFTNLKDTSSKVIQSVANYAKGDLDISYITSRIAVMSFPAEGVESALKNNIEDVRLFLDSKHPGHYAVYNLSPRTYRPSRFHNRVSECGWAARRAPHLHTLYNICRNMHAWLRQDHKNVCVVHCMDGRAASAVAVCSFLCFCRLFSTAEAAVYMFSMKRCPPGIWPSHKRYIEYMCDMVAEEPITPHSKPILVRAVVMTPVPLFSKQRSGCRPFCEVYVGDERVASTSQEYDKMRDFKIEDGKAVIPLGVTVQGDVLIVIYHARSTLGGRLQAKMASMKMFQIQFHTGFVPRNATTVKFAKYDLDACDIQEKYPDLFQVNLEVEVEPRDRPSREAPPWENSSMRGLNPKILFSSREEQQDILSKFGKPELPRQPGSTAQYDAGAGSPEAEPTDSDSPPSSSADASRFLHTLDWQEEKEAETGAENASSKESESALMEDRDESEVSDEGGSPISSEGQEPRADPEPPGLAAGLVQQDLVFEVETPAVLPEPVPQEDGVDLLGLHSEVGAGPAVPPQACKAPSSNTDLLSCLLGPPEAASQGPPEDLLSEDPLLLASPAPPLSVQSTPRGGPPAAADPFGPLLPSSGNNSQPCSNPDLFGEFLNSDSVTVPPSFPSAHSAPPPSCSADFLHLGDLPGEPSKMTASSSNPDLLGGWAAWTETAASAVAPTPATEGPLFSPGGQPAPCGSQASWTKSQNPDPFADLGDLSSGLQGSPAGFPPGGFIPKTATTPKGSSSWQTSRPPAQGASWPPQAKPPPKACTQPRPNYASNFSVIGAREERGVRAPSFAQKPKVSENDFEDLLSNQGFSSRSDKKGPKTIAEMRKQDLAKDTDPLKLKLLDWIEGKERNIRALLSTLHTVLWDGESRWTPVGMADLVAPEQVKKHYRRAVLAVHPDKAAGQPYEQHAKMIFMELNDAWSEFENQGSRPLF

DCLK2 (human) = DCLK2 (human) (UniProt Q8N568); assay: KINOMEscan competition binding; details: compound 10.0 µM
RPS6KA6 KD2 (human) = RPS6KA6 KD2 (human) (UniProt Q9UK32); assay: KINOMEscan competition binding; details: compound 10.0 µM
DAPK2 (human) = DAPK2 (human) (UniProt Q9UIK4); assay: KINOMEscan competition binding; details: compound 10.0 µM
Sequence of DAPK2 (human) (Q9UIK4 whole entry, looked up): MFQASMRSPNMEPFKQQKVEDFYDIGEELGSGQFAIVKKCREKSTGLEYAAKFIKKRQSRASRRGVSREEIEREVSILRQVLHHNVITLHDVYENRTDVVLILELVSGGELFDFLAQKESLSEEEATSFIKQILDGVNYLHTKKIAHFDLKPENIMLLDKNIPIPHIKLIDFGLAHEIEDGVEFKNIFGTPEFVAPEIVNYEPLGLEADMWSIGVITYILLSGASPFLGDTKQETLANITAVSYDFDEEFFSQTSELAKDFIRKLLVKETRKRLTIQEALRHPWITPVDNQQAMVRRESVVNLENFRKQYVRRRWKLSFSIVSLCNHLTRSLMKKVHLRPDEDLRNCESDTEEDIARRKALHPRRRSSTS

FER (human) = FER (human) (UniProt P16591); assay: KINOMEscan competition binding; details: compound 10.0 µM
PRKD1 (human) = PRKD1 (human) (UniProt Q15139); assay: KINOMEscan competition binding; details: compound 10.0 µM
DAPK1 (human) = DAPK1 (human) (UniProt P53355); assay: KINOMEscan competition binding; details: compound 10.0 µM
IGF1R (human) = IGF1R (human) (UniProt P08069); assay: KINOMEscan competition binding; details: compound 10.0 µM
STK33 (human) = STK33 (human) (UniProt Q9BYT3); assay: KINOMEscan competition binding; details: compound 10.0 µM
CAMK1D (human) = CAMK1D (human) (UniProt Q8IU85); assay: KINOMEscan competition binding; details: compound 10.0 µM
TNK1 (human) = TNK1 (human) (UniProt Q13470); assay: KINOMEscan competition binding; details: compound 10.0 µM
DAPK3 (human) = DAPK3 (human) (UniProt O43293); assay: KINOMEscan competition binding; details: compound 10.0 µM
Sequence of DAPK3 (human) (O43293 whole entry, looked up): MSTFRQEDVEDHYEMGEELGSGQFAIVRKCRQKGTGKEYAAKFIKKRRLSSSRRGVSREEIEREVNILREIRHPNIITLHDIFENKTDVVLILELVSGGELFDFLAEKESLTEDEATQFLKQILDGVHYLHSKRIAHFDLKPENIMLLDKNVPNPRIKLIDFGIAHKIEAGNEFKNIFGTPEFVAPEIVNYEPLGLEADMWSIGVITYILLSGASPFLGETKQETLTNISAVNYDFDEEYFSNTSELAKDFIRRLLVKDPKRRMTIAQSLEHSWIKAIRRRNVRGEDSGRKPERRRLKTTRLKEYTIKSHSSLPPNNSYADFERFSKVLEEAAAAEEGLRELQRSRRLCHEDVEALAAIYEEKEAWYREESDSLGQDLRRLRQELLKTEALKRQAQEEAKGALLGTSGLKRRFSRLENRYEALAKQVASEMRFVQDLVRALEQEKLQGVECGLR

PLK1 (human) = PLK1 (human) (UniProt P53350); assay: KINOMEscan competition binding; details: compound 10.0 µM

Sequence of TTK (human) (P33981 whole entry, looked up): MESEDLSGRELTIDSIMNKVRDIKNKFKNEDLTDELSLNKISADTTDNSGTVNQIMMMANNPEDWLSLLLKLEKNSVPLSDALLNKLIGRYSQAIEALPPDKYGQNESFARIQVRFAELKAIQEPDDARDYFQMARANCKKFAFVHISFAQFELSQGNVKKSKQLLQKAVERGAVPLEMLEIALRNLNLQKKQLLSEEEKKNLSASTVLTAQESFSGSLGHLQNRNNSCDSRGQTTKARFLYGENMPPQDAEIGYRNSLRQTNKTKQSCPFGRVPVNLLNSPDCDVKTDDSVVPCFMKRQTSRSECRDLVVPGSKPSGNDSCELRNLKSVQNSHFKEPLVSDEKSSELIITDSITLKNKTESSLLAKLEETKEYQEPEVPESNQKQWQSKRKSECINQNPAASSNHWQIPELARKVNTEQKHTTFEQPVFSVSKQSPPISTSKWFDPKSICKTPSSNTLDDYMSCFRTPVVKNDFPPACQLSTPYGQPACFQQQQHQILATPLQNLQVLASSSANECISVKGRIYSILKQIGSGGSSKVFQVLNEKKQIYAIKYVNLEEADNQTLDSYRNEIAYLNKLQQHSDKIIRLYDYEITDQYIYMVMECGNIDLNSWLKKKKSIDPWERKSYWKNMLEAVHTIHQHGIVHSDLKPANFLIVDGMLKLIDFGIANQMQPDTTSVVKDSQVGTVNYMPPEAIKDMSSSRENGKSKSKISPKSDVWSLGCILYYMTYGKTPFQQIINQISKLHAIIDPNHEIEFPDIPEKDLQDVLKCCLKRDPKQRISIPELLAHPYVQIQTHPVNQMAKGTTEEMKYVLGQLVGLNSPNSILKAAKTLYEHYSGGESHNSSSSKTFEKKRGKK

| kinase still bound, per cent of control (PTK2B (human)) [%] | kinase still bound, per cent of control (RPS6KA2 KD2 (human)) [%] | kinase still bound, per cent of control (PLK3 (human)) [%] | kinase still bound, per cent of control (PLK4 (human)) [%] | kinase still bound, per cent of control (TTK (human) [2]) [%] | kinase still bound, per cent of control (SLK (human)) [%] | kinase still bound, per cent of control (RPS6KA1 KD2 (human)) [%] | kinase still bound, per cent of control (INSRR (human)) [%] | kinase still bound, per cent of control (MYLK (human)) [%] | kinase still bound, per cent of control (ALK (human)) [%] | kinase still bound, per cent of control (PTK2 (human)) [%] | kinase still bound, per cent of control (INSR (human)) [%] | kinase still bound, per cent of control (DCLK1 (human)) [%] | kinase still bound, per cent of control (GAK (human)) [%] | kinase still bound, per cent of control (DCLK2 (human)) [%] | kinase still bound, per cent of control (RPS6KA6 KD2 (human)) [%] | kinase still bound, per cent of control (DAPK2 (human)) [%] | kinase still bound, per cent of control (DAPK1 (human)) [%] | kinase still bound, per cent of control (STK33 (human)) [%] | kinase still bound, per cent of control (DAPK3 (human)) [%] | also measured | Structure (SMILES) |
| --- | --- | --- | --- | --- | --- | --- | --- | --- | --- | --- | --- | --- | --- | --- | --- | --- | --- | --- | --- | --- | --- |
| 26 | 14 | 0 | 11 | 5.2 | 12 | 25 | 19 | 2.2 | 16 | 2.6 | 32 | 6.1 | 4.2 | 8.6 | 14 | 12 | 4 | 5.2 | 11 | IC50 (TTK (human) [1]): 2280 nM; kinase still bound, per cent of control (PRKD3 (human)): 32%; kinase still bound, per cent of control (CLK2 (human)): 21%; kinase still bound, per cent of control (CAMK2A (human)): 21%; kinase still bound, per cent of control (CLK1 (human)): 27%; Kd (TTK (human) [2]): 576 nM; kinase still bound, per cent of control (FER (human)): 33%; kinase still bound, per cent of control (PRKD1 (human)): 28%; kinase still bound, per cent of control (IGF1R (human)): 20%; kinase still bound, per cent of control (CAMK1D (human)): 29%; kinase still bound, per cent of control (TNK1 (human)): 28% | COc1cc(C(=O)NC2CCN(C)CC2)ccc1Nc1ncc2c(n1)N(C1CCCC1)CCC(=O)N2C |
| 12 | 9.6 | 4.1 | 8 | 0.85 | 20 | 15 | 23 | 3 | 14 | 7.1 | 30 | 11 | 2.7 | 31 | 22 | 24 | 8.2 | 5.6 | 9.9 | kinase still bound, per cent of control (PLK1 (human)): 2% | COc1cc(C(=O)NC2CCN(C)CC2)ccc1Nc1ncc2c(n1)N(C1CCC(O)CC1)CCC(=O)N2C (configuration not stated) |

— the kinase profiling compilation of Christmann-Franck et al. (2016)
